Experiment [1] deals with Erigeron canadensis. Nature of the experiment: Herbicidal activity against compound-resistant Conyza canadensis (horseweed) isolate 2 under greenhouse condition at 0.45 kg ae/ha measured 14 days post treatment relative to control. In kind it is functional.
For experiment [2], the system named is Erigeron canadensis. Briefly: Herbicidal activity against compound-resistant Conyza canadensis (horseweed) isolate 2 under greenhouse condition at 1.25 kg ae/ha measured 7 days post treatment relative to control. In kind it is functional.
The subject of experiment [3] is Erigeron canadensis. Nature of the experiment: Herbicidal activity against compound-resistant Conyza canadensis (horseweed) isolate 2 under greenhouse condition at 1.25 kg ae/ha measured 21 days post treatment relative to control. It is filed as functional.
Experiment [4] concerns Erigeron canadensis. Nature of the experiment: Herbicidal activity against compound-sensitive Conyza canadensis (horseweed) under greenhouse condition at 0.84 kg ae/ha measured 14 days post treatment relative to control. It is filed as functional.
Experiment [5] relates to Erigeron canadensis. Briefly: Herbicidal activity against compound-sensitive Conyza canadensis (horseweed) under greenhouse condition at 1.68 kg ae/ha measured 7 days post treatment relative to control. It is filed as functional.
The subject of experiment [6] is Erigeron canadensis. Nature of the experiment: Herbicidal activity against compound-resistant Conyza canadensis (horseweed) isolate 1 under greenhouse condition at 2.52 kg ae/ha measured 21 days post treatment relative to control. It is filed as functional.
In experiment [7] the test system is Erigeron canadensis. Briefly: Herbicidal activity against compound-resistant Conyza canadensis (horseweed) isolate 1 under greenhouse condition at 2.52 kg ae/ha measured 7 days post treatment relative to control. In kind it is functional.
Experiment [8] relates to Erigeron canadensis. Briefly: Herbicidal activity against compound-sensitive Conyza canadensis (horseweed) under greenhouse condition at 9 kg ae/ha measured 21 days post treatment relative to control. In kind it is functional.
The test system of experiment [9] is Erigeron canadensis. Nature of the experiment: Herbicidal activity against compound-sensitive Conyza canadensis (horseweed) under greenhouse condition at 2.52 kg ae/ha measured 14 days post treatment relative to control. In kind it is functional.
Experiment [10] concerns Erigeron canadensis. Briefly: Herbicidal activity against compound-resistant Conyza canadensis (horseweed) isolate 1 under greenhouse condition at 1.68 kg ae/ha measured 14 days post treatment relative to control. In kind it is functional.
The subject of experiment [11] is Erigeron canadensis. Nature of the experiment: Herbicidal activity against compound-sensitive Conyza canadensis (horseweed) under greenhouse condition at 1.25 kg ae/ha measured 21 days post treatment relative to control. In kind it is functional.
Experiment [12] has as its system Erigeron canadensis. Nature of the experiment: Herbicidal activity against compound-sensitive Conyza canadensis (horseweed) under greenhouse condition assessed as fresh weight at 1.68 kg ae/ha measured 21 days post treatment relative to untreated control.
The subject of experiment [13] is Erigeron canadensis. Briefly: Herbicidal activity against compound-resistant Conyza canadensis (horseweed) isolate 1 under greenhouse condition assessed as fresh weight at 1.68 kg ae/ha measured 21 days post treatment relative to untreated control.
Experiment [14] deals with Erigeron canadensis. Nature of the experiment: Herbicidal activity against compound-resistant Conyza canadensis (horseweed) isolate 2 under greenhouse condition assessed as fresh weight at 1.68 kg ae/ha measured 21 days post treatment relative to untreated control.
The subject of experiment [15] is Erigeron canadensis. Nature of the experiment: Herbicidal activity against compound-resistant Conyza canadensis (horseweed) isolate 2 under greenhouse condition assessed as fresh weight at 0.45 kg ae/ha measured 21 days post treatment relative to untreated control.

Consider `O=C(O)CNCP(=O)(O)O` [GLYPHOSATE], for which the Activity with Erigeron canadensis [1] was determined as 13%; in the experiment with Erigeron canadensis [2] it was 33%; in the experiment on Erigeron canadensis [3], 25%; in the experiment on Erigeron canadensis [4], 63%; in the experiment with Erigeron canadensis [5], 63%; with Erigeron canadensis [6] it was 59%. Moreover, the Activity stood at 58% with Erigeron canadensis [7]; 99% in the experiment on Erigeron canadensis [8]; 99% with Erigeron canadensis [9]; 40% in the experiment with Erigeron canadensis [10]; 90% in the experiment with Erigeron canadensis [11]. For the same compound, the “level, % of control” value with Erigeron canadensis [12] is reported as 1%; in the experiment with Erigeron canadensis [13], 36%; with Erigeron canadensis [14], 49%; with Erigeron canadensis [15], 94%.

These data come from ChEMBL document CHEMBL3045777, “Response of selected horseweed (Conyza canadensis (L.) Cronq.) populations to glyphosate” (2004).
